Measured values published in patent US12070472B2, “Treatment of drug resistant proliferative diseases with telomerase mediated telomere altering compounds” (The Board of Regents of the University of Texas System, priority 2016, dated 2024).
pIC50: −log10 of the molar value.

Assays:
[1] = mouse, in vivo, 5 mg/kg
Procedure: Six WT mice were treated with 1.67 mg of 6-thio-dG/kg of body weight daily. Six WT mice were treated with 1.67 mg of 6-thio-G/kg of body weight daily. Six WT mice were treated with 5 mg of 6-thio-dG/kg of body weight daily. Six WT mice were treated with 5 mg of 6-thio-G/kg of body weight daily. The mice were given the appropriate dosage and weighed daily for 25 days.

HCC827 = assay: GI 50 determination, HCC827; type: cell-based; conditions: Homo sapiens
Procedure: (§1) Cells of each type listed in Table 2 were seeded in chamber slides.

HCT116 cells [2] = test system: HCT116 cells
Procedure: Following the treatment cells were seeded at different densities and the cultured for 10 days.

[3] = test system: paclitaxel/carboplatin resistant H1299; assay: 6-thio-dG on paclitaxel/carboplatin resistant H1299, cell count; type: cell-based, human; conditions: 1, 3, 10 μM every three days for one week
Procedure: (§2) A cell count was performed to measure cell growth/death.

HCT116 = assay: GI 50 determination, HCT116; type: cell-based; conditions: Homo sapiens, HCT-116
Procedure: as §1

HCC515 = assay: GI 50 determination, HCC515; type: cell-based; conditions: Homo sapiens
Procedure: as §1

H1993 = assay: NSCLC panel sensitivity to 6-thio-dG, H1993; type: cell-based, human
Procedure: (§3) A panel of NSCLC cell lines was tested for sensitivity to 6-thio-dG by performing a cell count after 1 week treatment. Briefly, cells were treated with 3 μM 6-thio-dG every three days for 1 week. Viable cells were counted at the end of treatment. Each 6-thiodG treated cell line was normalized to its DMSO treated control.
Two isogenic pairs of NSCLC cell lines were studied for sensitization to 6-thio-dG treatment.

H1819 = assay: 6-thio-dG on H1819 parental and paclitaxel/carboplatin resistant lines; type: cell-based, human; conditions: 1, 3, 10 μM
Procedure: The resulting resistant lines and their parents were tested for the effect of 6-thio-dG at 1, 3, and 10 μM concentrations.

H2343 = assay: NSCLC panel sensitivity to 6-thio-dG, H2343; type: cell-based; conditions: Homo sapiens
Procedure: as §3, with “control. The results of the cell count are depicted in FIG. 12, with the various cell lines arranged in descending resistance to 6-thio-dG from left to right. […] The IC50 values for the whole panel of tested cells are depicted in FIG. 13. The IC50 values for tested cells are depicted as a column scatter graph in FIG. 14.” for “control.”

H2085 = assay: NSCLC panel sensitivity to 6-thio-dG, H2085; type: cell-based; conditions: Homo sapiens
Procedure: as §3, with “control. The results of the cell count are depicted in FIG. 12, with the various cell lines arranged in descending resistance to 6-thio-dG from left to right. […] The IC50 values for the whole panel of tested cells are depicted in FIG. 13. The IC50 values for tested cells are depicted as a column scatter graph in FIG. 14.” for “control.”

H2087 = assay: GI 50 determination, H2087; type: cell-based; conditions: Homo sapiens, NCI-H2087
Procedure: as §1

HCT116 cells [4] = conditions: 3 μM twice during one week
Procedure: Cancer HCT116 and normal BJ fibroblast cells were treated with 6-thio-dG (3 μM) and 6-thio-G (3 μM) twice during one week. Following one week of the treatment, cell morphology was monitored, and then the cells were collected and counted.

H2882 = assay: GI 50 determination, H2882; type: cell-based; conditions: Homo sapiens, NCI-H2882
Procedure: as §1

A549 = assay: GI 50 determination, A549; type: cell-based; conditions: Homo sapiens
Procedure: as §1

HCC15 = assay: GI 50 determination, HCC15; type: cell-based; conditions: Homo sapiens
Procedure: as §1

Toxicity testing in rats = conditions: for mortality: rats
Procedure: Six rats were treated with 15 mg of 6-thio-dG/kg of body weight every two days. […] Another 5 rats were treated with 50 mg of 6-thio-dG/kg of body weight every other day.

BJ-hTERT cells = assay: Telomere dysfunction induced foci (TIF) assay in BJ-hTERT cells; type: cell-based, human; conditions: 10 μM, after 48 hours
Procedure: TIFs were quantified using Imaris software.
Normal BJ cells and […] BJ-hTERT cells were seeded in chamber slides. Following cell attachment, 6-thio-dG (10 μM) and 6-thio-G (10 μM) were added to fresh medium of each cell type. […] A control was used for each cell type as well, where DMSO was added to fresh medium of each cell type. […] These include almost all human cancer cells and certain human diseases involving acute and chronic inflammation.

H2126 = assay: NSCLC panel sensitivity to 6-thio-dG, H2126; type: cell-based; conditions: Homo sapiens, NCI-H2126
Procedure: as §3, with “control. The results of the cell count are depicted in FIG. 12, with the various cell lines arranged in descending resistance to 6-thio-dG from left to right. […] The IC50 values for the whole panel of tested cells are depicted in FIG. 13. The IC50 values for tested cells are depicted as a column scatter graph in FIG. 14.” for “control.”

H2086 = assay: NSCLC panel sensitivity to 6-thio-dG, H2086; type: cell-based, human; conditions: 3 μM every three days for 1 week, normalized to DMSO control
Procedure: as §3, with “control. The results of the cell count are depicted in FIG. 12, with the various cell lines arranged in descending resistance to 6-thio-dG from left to right. […] The IC50 values for the whole panel of tested cells are depicted in FIG. 13. The IC50 values for tested cells are depicted as a column scatter graph in FIG. 14.” for “control.”

H324 = assay: NSCLC panel sensitivity to 6-thio-dG, H324; type: cell-based; conditions: Homo sapiens
Procedure: as §3, with “control. The results of the cell count are depicted in FIG. 12, with the various cell lines arranged in descending resistance to 6-thio-dG from left to right. […] The IC50 values for the whole panel of tested cells are depicted in FIG. 13. The IC50 values for tested cells are depicted as a column scatter graph in FIG. 14.” for “control.”

BJ = assay: GI 50 determination, BJ; type: cell-based; conditions: Homo sapiens; BJ normal cell line
Procedure: as §1

HCT116 cells [5] = assay: Tumor growth in xenograft animal model with HCT116 cells; type: in vivo, mice; conditions: 2 mg/kg IP every two days, 6 injections
Procedure: Doses of 2 mg/kg of 6-thio-dG and 2 mg/kg of 6-thio-G were IP injected every two days for a total of 6 injections into mice. DMSO injections were used for the control. The volume of the tumor was measured.

[6] = test system: A549 non-small cell lung cancer cell line; assay: CellTitreGlo survival, 7 days, A549; type: cell-based; conditions: Homo sapiens, 168 h
Procedure: Four different cell lines were treated with nine different doses of 6-thio-dG for 7 days. HCT116 colon cancer cell line (FIG. 9A), HCEC1 normal colonic cell line (FIG. 9C), A549 non-small cell lung cancer cell line (FIG. 9B), and BJ normal fibroblast cell line (FIG. 9D) were each treated. Survival fraction was measured by CellTitreGlo luminescent cell viability assay (Promega).

[7] = test system: paclitaxel/carboplatin resistant H1355; assay: 6-thio-dG on paclitaxel/carboplatin resistant H1355, cell count; type: cell-based, human; conditions: 1, 3, 10 μM every three days for one week
Procedure: as §2

Nc1nc2c(ncn2[C@H]2C[C@H](O)[C@@H](CO)O2)c(=S)[nH]1 [6-thio-dG, 6-thio-2′-deoxyguanosine]
weight loss [1]: only modest weight loss | GI50 (HCC827): 0.8 µM | survival fraction (HCT116 cells [2]; 3 μM, after 72 hours irradiated, cultured 10 days): lower than cells treated with 6-thio-G | cell viability (HCT116 cells [2]; cell titer glow luminescent assay): lower than cells treated with 6-thio-G | sensitivity (cell count) [3]: sensitive to all three concentrations | GI50 (HCT116): 1 µM | GI50 (HCC515): 2.4 µM | survival rate (H1993; H1993, 3 μM every three days for 1 week, normalized to DMSO control): greater than 50% | pIC50 (H1993; Homo sapiens, NCI-H1993): < 4.00 | sensitivity (H1819): resistant to 6-thio-dG | pIC50 (H2343): 5.15 to 5.52 | pIC50 (H2085): 5.15 to 5.52 | GI50 (H2087): 0.9 µM | cell death / cell count (HCT116 cells [4]): death of the vast majority of HCT116 cells | GI50 (H2882): 0.4 µM | GI50 (A549): 2.1 µM | GI50 (HCC15): 0.8 µM | signs of impaired function in surviving animals (Toxicity testing in rats; rat, in vivo, 15 mg/kg): no signs of impaired function | mortality (Toxicity testing in rats; 15 mg/kg every two days, six rats): One rat died after 6 injections | mortality (Toxicity testing in rats; 50 mg/kg every other day, 5 rats): All rats died after 12 days | >4 TIFs per nucleus background subtracted (BJ-hTERT cells): 14 | pIC50 (H2126): 5.15 to 5.52 | survival rate (H2086): greater than 50% | pIC50 (H324): 5.66 | GI50 (BJ): > 100 µM | rate of tumor growth (tumor volume) (HCT116 cells [5]): rate of tumor growth was less | pIC50 [6]: 5.62 | sensitivity (cell count) [7]: sensitive to all three concentrations
